Test results: the supplement of paper PMC11451515

System: NOMO1
Assay: cell viability relative to DMSO control; higher = less cytotoxic
Settings: 48 h
Summary of the method: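 Before seeding, each leukemia line was adapted for at least four passages in each medium. NOMO1 or SEM cells (500 cells/well) and P12-Ichikawa cells (1000 cells/well) went into 1536-well plates at 5 μl, then received library compounds in DMSO by pin dosing across 11 threefold concentrations, 47 μM to 0.79 nM. Readout was CellTiter-Glo One luminescence after 48 h at 37°C, and viability is given as a per-plate percentage of DMSO wells, with cell-free wells as background.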

[1] = HPLM + 10% dialyzed FBS, 0.000781 µM
[2] = HPLM + 10% dialyzed FBS, 0.00234 µM
[3] = HPLM + 10% dialyzed FBS, 0.00702 µM
[4] = HPLM + 10% dialyzed FBS, 0.0211 µM
[5] = HPLM + 10% dialyzed FBS, 0.0632 µM
[6] = HPLM + 10% dialyzed FBS, 0.19 µM
[7] = HPLM + 10% dialyzed FBS, 0.569 µM
[8] = HPLM + 10% dialyzed FBS, 1.71 µM
[9] = HPLM + 10% dialyzed FBS, 5.12 µM
[10] = HPLM + 10% dialyzed FBS, 15.4 µM
[11] = HPLM + 10% dialyzed FBS, 46.1 µM
[12] = RPMI 5 mM glucose + 10% FBS, 0.000781 µM
[13] = RPMI 5 mM glucose + 10% FBS, 0.00234 µM
[14] = RPMI 5 mM glucose + 10% FBS, 0.00702 µM
[15] = RPMI 5 mM glucose + 10% FBS, 0.0211 µM
[16] = RPMI 5 mM glucose + 10% FBS, 0.0632 µM
[17] = RPMI 5 mM glucose + 10% FBS, 0.19 µM
[18] = RPMI 5 mM glucose + 10% FBS, 0.569 µM
[19] = RPMI 5 mM glucose + 10% FBS, 1.71 µM
[20] = RPMI 5 mM glucose + 10% FBS, 5.12 µM
[21] = RPMI 5 mM glucose + 10% FBS, 15.4 µM
[22] = RPMI 5 mM glucose + 10% FBS, 46.1 µM
[23] = RPMI 5 mM glucose + 10% dialyzed FBS, 0.000781 µM
[24] = RPMI 5 mM glucose + 10% dialyzed FBS, 0.00234 µM
[25] = RPMI 5 mM glucose + 10% dialyzed FBS, 0.00702 µM
[26] = RPMI 5 mM glucose + 10% dialyzed FBS, 0.0211 µM
[27] = RPMI 5 mM glucose + 10% dialyzed FBS, 0.0632 µM
[28] = RPMI 5 mM glucose + 10% dialyzed FBS, 0.19 µM
[29] = RPMI 5 mM glucose + 10% dialyzed FBS, 0.569 µM
[30] = RPMI 5 mM glucose + 10% dialyzed FBS, 1.71 µM
[31] = RPMI 5 mM glucose + 10% dialyzed FBS, 5.12 µM
[32] = RPMI 5 mM glucose + 10% dialyzed FBS, 15.4 µM
[33] = RPMI 5 mM glucose + 10% dialyzed FBS, 46.1 µM

| SMILES | cell viability [1] [%] | cell viability [2] [%] | cell viability [3] [%] | cell viability [4] [%] | cell viability [5] [%] | cell viability [6] [%] | cell viability [7] [%] | cell viability [8] [%] | cell viability [9] [%] | cell viability [10] [%] | cell viability [11] [%] | cell viability [12] [%] | cell viability [13] [%] | cell viability [14] [%] | cell viability [15] [%] | cell viability [16] [%] | cell viability [17] [%] | cell viability [18] [%] | cell viability [19] [%] | cell viability [20] [%] | cell viability [21] [%] | cell viability [22] [%] | cell viability [23] [%] | cell viability [24] [%] | cell viability [25] [%] | cell viability [26] [%] | cell viability [27] [%] | cell viability [28] [%] | cell viability [29] [%] | cell viability [30] [%] | cell viability [31] [%] | cell viability [32] [%] | cell viability [33] [%] |
| --- | --- | --- | --- | --- | --- | --- | --- | --- | --- | --- | --- | --- | --- | --- | --- | --- | --- | --- | --- | --- | --- | --- | --- | --- | --- | --- | --- | --- | --- | --- | --- | --- | --- |
| CCC[C@@H]1C[C@@H](C(=O)N[C@@H]([C@H]2O[C@H](SC)[C@H](O)[C@@H](O)[C@H]2O)[C@@H](C)O)N(C)C1.Cl | 103 | 121 | 123 | 122 | 125 | 128 | 110 | 100 | 79 | 96 | 68.8 | 129 | 121 | 107 | 111 | 114 | 111 | 124 | 103 | 111 | 124 | 111 | 118 | 112 | 119 | 105 | 119 | 109 | 111 | 108 | 107 | 104 | 98 |
| O=C1NC(=O)[C@@H](c2cn3c4c(cccc24)CCC3)[C@@H]1c1c[nH]c2ccccc12 | 95.9 | 99.3 | 98.2 | 104 | 107 | 89.3 | 89.8 | 62.9 | 29.7 | 36.4 | 20.6 | 104 | 116 | 115 | 99.5 | 108 | 104 | 110 | 68.6 | 21.1 | 20.8 | 20.5 | 93.1 | 91.3 | 96.2 | 98.7 | 106 | 98.3 | 114 | 80 | 22.4 | 28.5 | 29 |
| CNC(=O)[C@H](Cc1ccccc1)NC(=O)[C@H](CC(C)C)[C@H](CSc1cccs1)C(=O)NO | 79.9 | 100 | 91.7 | 101 | 86.8 | 93.7 | 97.8 | 94.7 | 89.4 | 77.8 | 79.7 | 85.6 | 76.9 | 73.4 | 81.1 | 93.5 | 87.7 | 87.2 | 95.4 | 75 | 78.3 | 91.8 | 78.9 | 89 | 81.5 | 96.7 | 87.6 | 89.1 | 101 | 92.8 | 83 | 70.8 | 81.3 |
| CC(C)(C)/[N+]([O-])=C/c1ccc([S+](=O)([O-])[O][Na])cc1[S+](=O)([O-])[O][Na] | 97.5 | 102 | 111 | 115 | 121 | 132 | 121 | 128 | 129 | 119 | 127 | 105 | 118 | 119 | 126 | 125 | 118 | 125 | 128 | 111 | 138 | 133 | 94 | 102 | 111 | 114 | 111 | 120 | 127 | 109 | 109 | 123 | 120 |
| Cl.c1cnc2cc3c(cc2n1)C1CNCC3C1 | 107 | 109 | 110 | 103 | 129 | 126 | 135 | 124 | 124 | 122 | 92 | 101 | 105 | 113 | 107 | 112 | 110 | 118 | 104 | 111 | 110 | 79.4 | 99.3 | 98.2 | 105 | 114 | 107 | 121 | 116 | 109 | 103 | 108 | 62.8 |
| N[C@@H](C(=O)N[C@H]1[C@H]2SC\C(=C(/N2C1=O)C(O)=O)Cl)C3=CC=CC=C3 | 123 | 124 | 125 | 136 | 150 | 119 | 126 | 108 | 134 | 145 | 135 |  |  |  |  |  |  |  |  |  |  |  |  |  |  |  |  |  |  |  |  |  |  |
| COCCOC(=O)C/1=C(C)/NC/2=C(C1C3=CC=CC(=C3)O)/C(=O)CC(C2)C4=C(OC)C=CC=C4 (stereo unspecified) | 96.9 | 105 | 93.2 | 118 | 116 | 104 | 124 | 97.9 | 102 | 87.5 | 59.3 | 82.5 | 89.6 | 110 | 118 | 119 | 99.7 | 99.7 | 99.5 | 97.3 | 96.9 | 78.5 | 89.4 | 105 | 99.7 | 99.6 | 114 | 109 | 112 | 99.2 | 109 | 91.4 | 85.2 |
| CSC1=CC(=CC=C1)NC2=NC3=C(C=N2)/C=C(C(=O)N3C)/C4=C(Cl)C=CC=C4Cl | 96.6 | 114 | 118 | 101 | 119 | 101 | 108 | 107 | 115 | 114 | 108 | 96.1 | 124 | 128 | 109 | 118 | 101 | 121 | 118 | 103 | 116 | 102 | 84.7 | 95.5 | 104 | 91.3 | 120 | 118 | 109 | 112 | 111 | 94 | 108 |
| Cc1nc(Nc2ncc(C(=O)Nc3c(C)cccc3Cl)s2)cc(N2CCN(CCO)CC2)n1 | 90.9 | 104 | 102 | 99.9 | 107 | 107 | 113 | 95.2 | 83.9 | 85.6 | 71.9 | 104 | 102 | 106 | 101 | 105 | 105 | 117 | 110 | 100 | 89.3 | 80.3 | 101 | 94.5 | 102 | 92.1 | 105 | 94.3 | 106 | 96.2 | 81 | 75.9 | 75.9 |
| NC1CCC(N[C@@H]2C[C@H]2c2ccccc2)CC1 (stereo partly specified) | 78.6 | 92.8 | 94.8 | 93.3 | 94.2 | 108 | 117 | 108 | 107 | 111 | 92 | 95.3 | 88.9 | 101 | 104 | 101 | 89.4 | 94.4 | 89.8 | 94.3 | 100 | 93.3 | 95.5 | 97 | 96 | 96.8 | 100 | 96.7 | 85.5 | 93.8 | 99.7 | 88 | 84 |
| CCCCCCCCCCCC(CC1OC(=O)C1CCCCCC)OC(=O)C(CC(C)C)NC=O (stereo unspecified) | 92.9 | 105 | 100 | 109 | 110 | 114 | 118 | 114 | 109 | 98.8 | 13.7 | 93.5 | 104 | 95.3 | 94.9 | 114 | 97.8 | 102 | 97.2 | 100 | 102 | 31 | 92.4 | 102 | 107 | 91.7 | 107 | 102 | 95.1 | 105 | 96.4 | 89.2 | 37.2 |
| COc1nc(-c2ccc3c(c2)OCO3)n(-c2ccc(NC(=O)CSc3ccccc3)cc2)n1 |  |  |  |  |  |  |  |  |  |  |  | 105 | 108 | 114 | 103 | 113 | 106 | 107 | 102 | 116 | 89.1 | 21.2 | 102 | 108 | 110 | 117 | 105 | 106 | 103 | 105 | 97.7 | 98.7 | 23.1 |
| COc1cc2nccc(Oc3ccc(NC(=O)Nc4ccc(F)cc4F)c(F)c3)c2cc1OC | 101 | 95.8 | 94.1 | 84.6 | 89.9 | 86 | 90.3 | 83.6 | 75 | 78.7 | 72.2 | 83 | 95.8 | 79.6 | 90.5 | 96.2 | 88.1 | 87.5 | 90.9 | 83 | 80.1 | 75.7 | 96.6 | 96.1 | 103 | 91.9 | 94.5 | 90.1 | 81.7 | 102 | 80.7 | 83.2 | 54.6 |
| C#CCN(C)[C@H](C)Cc1ccccc1 | 88.2 | 89.6 | 88.5 | 87.2 | 76.7 | 79.7 | 85.6 | 83 | 92 | 79.8 | 65.1 | 82.2 | 82.8 | 82 | 85.4 | 77 | 83.9 | 79.4 | 76 | 82.9 | 78.9 | 77.5 | 77.6 | 86.1 | 84.2 | 95.6 | 85 | 94 | 83.5 | 80 | 92.2 | 83.6 | 82.7 |
| CN1C(=O)\C(=C/C(=C1/NC2=C(F)C=C(I)C=C2)C(=O)NOCCO)C | 89.8 | 89.6 | 77.9 | 64.2 | 46.3 | 45.8 | 40.2 | 41.6 | 32.9 | 39.8 | 36.1 | 86 | 93.8 | 75.3 | 72 | 50.2 | 52.2 | 49.4 | 46.7 | 43.4 | 41.4 | 46.5 | 75 | 81.7 | 78.5 | 62.9 | 45.9 | 40.8 | 40 | 40.4 | 37.6 | 43.1 | 43.3 |
| O=C(NC1CCNCC1)c1n[nH]cc1NC(=O)c1c(Cl)cccc1Cl | 114 | 110 | 123 | 128 | 126 | 127 | 112 | 23.5 | 7.29 | 5.85 | 3.89 | 112 | 110 | 110 | 104 | 112 | 115 | 111 | 33.9 | 9.78 | 7.73 | 3.45 | 116 | 116 | 115 | 113 | 117 | 107 | 98.1 | 35.8 | 7.61 | 7.43 | 3.85 |
| COc1ccc(Cc2nccc3cc(OC)c(OC)cc23)cc1OC |  |  |  |  |  |  |  |  |  |  |  | 115 | 118 | 124 | 117 | 105 | 108 | 138 | 110 | 103 | 114 | 23.3 |  |  |  |  |  |  |  |  |  |  |  |
